# Data from US10363276B2, “Compositions, methods, and devices for treating disease” (The General Hospital Corporation, priority 2006, dated 2019).
# How the values were obtained:
# Hepatocytes = assay: Hepatocyte colonies and urea synthesis with modulation of SDF-1a signaling; format: cell-based; details: 5 ng/ml SDF-1a or AMD3100 at 1 uM in standard culture medium
# Protocol: FIG. 24 is a bar graph of Urea synthesis in hepatocytes cultured on growth-arrested NIH-3T3-J2 fibroblasts for 14 days supplemented with 5 ng/ml SDF-1a or AMD3100, a CXCR4 antagonist. Data represent mean±standard error of the mean (s.e.m.) of two independent experiments performed in triplicate.
# One component of MSC-CM that may be responsible for increased hepatocyte replication is SDF-1a. Hepatocytes were proliferated using aforementioned techniques in standard culture medium alone or supplemented with 5 ng/ml SDF-1a (FIG. 29B) or the SDF-1a receptor antagonist, AMD3100 at 1 uM.
# human MSCs = assay: IL-10 mRNA (RT-PCR) and protein (ELISA) in cytokine-treated MSCs; format: cell-based; details: IL-6 2.5 ng/ml or TNF-α 25 ng/ml, 24 hours
# Protocol: MSCs were exposed to IL-1, IL-6, or tumor necrosis factor-α(TNF-α), all of which are cytokines known to be involved in liver fibrosis, for 24 hours. IL-10 protein secretion and mRNA levels were the determined by enzyme-linked-immunosorbent-assay (ELISA) and RT-PCR, respectively.
# Briefly, human MSCs were treated with 2.5 ng/ml IL-6 (R&D Systems, Minneapolis, Minn.), 5 ng/ml IL-1 (R&D Systems, Minneapolis, Minn.), or 25 ng/ml TNF-α (R&D Systems, Minneapolis, Minn.) supplemented MSC expansion medium for 24 hours. MSCs cultured in expansion medium served as a negative control. After treatment, cells were harvested and analyzed for changes in gene expression.
# Quantification of human IL-10 was determined using an ELISA as per vendor instructions (Endogen, Rockford, Ill.). Supernatants were sampled after 48 hours of co-culture and stored at −20° C. until analysis.
# RNA was extracted from 0.1-1.0×10^6 MSCs using the NUCLEOSPIN RNA purification kit (BD Biosciences, Palo Alto, Calif.) per the manufacturer's instructions. Approximately 1 μg of total mRNA was reverse transcribed to cDNA using the ONESTEP RT-PCR Kit (Qiagen, Valencia, Calif.) per manufacturer's instructions and amplified in a Perkin Elmer-Cetus Thermal Cycler 480. Cycling conditions were: 1) 50° C. for 30 minutes; 2) 95° C. for 15 minutes; 3) 30 cycles at 94° C. for 30 seconds, 55° C. for 30 seconds, and 72° C. for 1 minute; and 4) a final extension step at 72° C. for 10 minutes. IL-10 was amplified using a combination of the sense and antisense oligonucleotides SEQ ID NO:1 and SEQ ID NO:2, respectively, to yield a 364 base pair (bp) PCR product. Glyceraldehyde 3-phosphate dehydrogenase (GAPDH) was amplified using a combination of the sense and antisense oligonucleotides SEQ ID NO:3 and SEQ ID NO:4, respectively, to yield a 238 bp PCR product.
Compound,hepatocyte colony size (Hepatocytes),IL-10 mRNA in MSCs (human MSCs),IL-10 protein secretion into the culture medium by MSCs (human MSCs)
c1cc(CN2CCCNCCNCCCNCC2)ccc1CN1CCCNCCNCCCNCC1 [AMD3100],smaller colonies,–,–
IL-6: cytokine (R&D Systems) used at 2.5 ng/ml to treat human MSCs,–,upregulation,upregulation
TNF-α,–,upregulation,upregulation
